Data taken from the NIST ThermoML archive (doi:10.1016/j.jct.2008.07.005).

Assay: xn = mol fraction of the nth substance listed
Conditions: 98.93 kPa, Liquid

OCCCO [propan-1,3-diol] + O
mass density [kg/m3]
Conditions	283.15 K	288.15 K	293.15 K	298.15 K	303.15 K	308.15 K
x1 = 0.002	1000.12	999.49	998.61	997.63	996.05	994.51
x1 = 0.005	1000.99	1000.34	999.44	998.44	996.84	995.27
x1 = 0.01	1002.44	1001.75	1000.81	999.76	998.14	996.53
x1 = 0.019	1005.28	1004.53	1003.5	1002.37	1000.71	999
x1 = 0.03	1008.07	1007.24	1006.13	1004.91	1003.2	1001.41
x1 = 0.04	1010.8	1009.9	1008.71	1007.39	1005.63	1003.75
x1 = 0.05	1013.46	1012.49	1011.23	1009.82	1008	1006.03
x1 = 0.065	1017.32	1016.24	1014.85	1013.31	1011.4	1009.3
x1 = 0.08	1021.01	1019.75	1018.24	1016.57	1014.57	1012.35
x1 = 0.1	1025.57	1024.07	1022.38	1020.58	1018.45	1016.06
x1 = 0.125	1030.69	1028.92	1027.01	1025.02	1022.73	1020.19
x1 = 0.1526	1035.61	1033.62	1031.48	1029.18	1026.8	1024.09
x1 = 0.17	1038.35	1036.24	1033.94	1031.44	1029.04	1026.23
x1 = 0.18	1039.8	1037.62	1035.24	1032.61	1030.2	1027.36
x1 = 0.2	1042.35	1040.04	1037.56	1034.66	1032.25	1029.35

CCCO [propan-1-ol] + O
mass density [kg/m3]
Conditions	283.15 K	288.15 K	293.15 K	298.15 K	303.15 K	308.15 K
x1 = 0.002	998.53	997.69	996.58	995.4	994.2	992.72
x1 = 0.005	996.91	996.06	994.95	993.76	992.54	991.05
x1 = 0.009	994.87	994	992.87	991.66	990.43	988.92
x1 = 0.01	994.38	993.49	992.36	991.14	989.92	988.4
x1 = 0.02	989.99	988.99	987.82	986.54	985.27	983.68
x1 = 0.03	986.29	985.17	983.91	982.56	981.2	979.57
x1 = 0.05	979.96	978.27	977.1	975.49	973.96	972.3
x1 = 0.065	975.01	972.88	971.86	969.94	968.38	966.41
x1 = 0.08	969.18	966.99	965.87	963.72	961.92	959.82
x1 = 0.1	960.42	958.48	957.26	954.91	952.93	950.64
x1 = 0.13	947.97	946	944.52	941.96	939.8	937.47
x1 = 0.15	940.47	938.48	936.78	934.12	931.81	929.47
x1 = 0.17	933.5	931.45	929.49	926.68	924.32	922.05
x1 = 0.1856	928.41	926.35	924.19	921.23	918.84	916.61
x1 = 0.2	923.98	921.89	919.56	916.46	914.04	911.83
